Earlier results on three molecules are cited in US10894875B2, “Films and unit dose articles comprising aversive UV-protective agents, and uses and methods related thereto” (The Procter & Gamble Company, priority 2017, dated 2021).

For data set [1] the following is noted: Scoville heat units.
For data set [2] the following is noted: high assessed based on melting point; low = hydrolysis; based on literature.
The conditions of data set [3]: reference quinine; lower values correspond to stronger bittering.

Marks after values point to notes of the source that are not given here.

Consider `COc1cc(CNC(=O)CCCC/C=C/C(C)C)ccc1O` [capsaicin], for which, in data set [1], the pungency level result is recorded as “about 16,000,000 SHU”.

Regarding `CCCCCOC(=O)c1ccc(N(C)C)cc1` [Ex. 6, Padimate A, reference compound], the Thermostability entry in data set [2] is recorded as “Low^c”.

As to `C=C[C@H]1C[N@@]2CC[C@H]1C[C@H]2[C@H](O)c1ccnc2ccc(OC)cc12` [Ex. 7, Quinine, reference compound], in data set [3], the Bittering index is reported as 0^d.
